This passage reports inhibition, IC50 and melting point results from article PMC6661812, “Synthesis, biological activity and molecular docking of new tricyclic series as α-glucosidase inhibitors” (BMC Chemistry, 2019).

Series [1] concerns the target α-glucosidase enzyme type 1 from Baker’s yeast (Saccharomyces cerevisiae, UniProt P53341). Kind of series: α-Glucosidase inhibitory assay (p-NPG substrate, absorbance at 405 nm). Type of series: biochemical. To be noted: for inhibition at 100 µg/mL: 100 µg/mL of each compound, test repeated three times, read-out: average percent inhibition of α-glucosidase; for IC50: mean of three experiments ± SEM, more than five concentrations. On the procedure:
Phosphate-buffered saline pH 6.5 was prepared at 20 °C by dissolving sodium phosphate monobasic (1.4 g), sodium chloride (8 g), potassium chloride (0.2 g) and potassium dihydrogen phosphate (0.2 g) in deionized water (1 L). The solution was adjusted to pH 6.5 at 20 °C with 1 M sodium hydroxide (NaOH) or hydrochloric acid (HCl). A 20-mM solution of para-nitrophenyl-α-D-glucopyranoside (p-NPG substrate) was prepared by dissolving […] of p-NPG in 10 mL of buffer solution. The α-glucosidase enzyme solution was prepared by dissolving α-glucosidase enzyme type 1 from Baker’s yeast (1 mg) in cold phosphate-buffered saline (1000 µL), pH 6.5; 50 µL of this solution was mixed into 12 mL of cold phosphate-buffered saline to give a concentration of 0.125 unit/mL. For the screening of samples, 200 µg/mL concentration was prepared in 100% dimethyl sulfoxide (DMSO). Then, two-fold serial dilutions with 5% DMSO were prepared in a 96-well microplate to give final concentrations of 100, 50, 25, 12.5, 6.25, 3.13 and 1.56 µg/mL. […]
A volume of 10 µL of 5% DMSO was added to the 96 wells of the microplate. Then, 10 µL of the stock sample was added to the first well and mixed. Subsequently, 10 µL of the sample from the first well was taken and added to the second well and this procedure was repeated for the two-fold serial dilutions. Next, 20 µL of the α-glucosidase enzyme, 40 µL of phosphate buffered saline at pH 6.5 and 20 µL of deionized water were added to each well in the 96-well microtiter plate and mixed. The mixture was pre-incubated at 37 °C for 10 min. Then, 10 µL of 20 mM p-NPG solution was added to the mixture and the absorbance at 0 min. was measured at 405 nm. The reaction was incubated for 30 min. at 37 °C and the absorbance was then measured. […] Experiments were performed in triplicate. The inhibition activity of α-glucosidase was determined based on the described method by Ahmad et al.. The percent inhibition (%) of α-glucosidase inhibitory activity was calculated using the equation: %inhibition=A30min-A0mincontrol-A30min-A0minexp/A30min-A0mincontrol×100\%
IC50 values are the mean values of three experiments represented as SEM (n = 3). […] Statistical analysis using one-way ANOVA was applied to the results. Nonlinear regression analysis using a four-parameter logistic curve was performed to calculate the IC50 values. The statistical software used were Microsoft Excel 2010 and Sigma Plot (version 14.0 Notebook, Systat Software Inc.).

α-glucosidase enzyme type 1 from Baker’s yeast, sequence (P53341 whole entry): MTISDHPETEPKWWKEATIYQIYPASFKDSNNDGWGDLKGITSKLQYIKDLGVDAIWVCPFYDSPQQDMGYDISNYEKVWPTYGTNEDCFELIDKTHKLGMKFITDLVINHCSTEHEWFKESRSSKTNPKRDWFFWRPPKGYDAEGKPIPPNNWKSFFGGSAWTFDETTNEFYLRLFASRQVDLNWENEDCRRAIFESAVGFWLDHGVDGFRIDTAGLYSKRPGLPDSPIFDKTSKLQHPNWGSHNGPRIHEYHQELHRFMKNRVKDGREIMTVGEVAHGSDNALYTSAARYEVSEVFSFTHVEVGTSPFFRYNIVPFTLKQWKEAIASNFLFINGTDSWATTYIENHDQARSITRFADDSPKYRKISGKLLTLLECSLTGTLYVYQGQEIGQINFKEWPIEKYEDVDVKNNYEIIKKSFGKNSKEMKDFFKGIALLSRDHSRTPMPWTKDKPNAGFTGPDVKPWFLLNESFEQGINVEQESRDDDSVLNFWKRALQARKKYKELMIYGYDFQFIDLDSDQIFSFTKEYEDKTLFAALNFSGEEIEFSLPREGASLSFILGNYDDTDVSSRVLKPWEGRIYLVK

Compound `COc1ccccc1/C=N/Nc1nc2nc(Oc3ccccc3)nn2c2ncccc12` [Compound 6h, (E)-5-(2-(2-Methoxybenzylidene)hydrazinyl)-2-phenoxypyrido[3,2-e][1,2,4]triazolo[1,5-a]pyrimidine] registered a melting point of 111 to 113 °C. For the same compound, in series [1], the inhibition at 100 µg/mL is more than 50% and the midpoint of inhibition, the IC50, lay at 104 µM.
For the compound `O=c1c2cccnc2n2nc(Oc3ccccc3)nc2n1CCN1CCOCC1` [Compound 2j, 4-(2-Morpholinoethyl)-2-phenoxypyrido[3,2-e][1,2,4]triazolo[1,5-a]pyrimidin-5(4H)-one], the melting point was 169 to 171 °C.
Turning to `O=c1c2cccnc2n2nc(Oc3ccccc3)nc2n1Cc1ccccc1` [Compound 2c, 4-Benzyl-2-phenoxypyrido[3,2-e][1,2,4]triazolo[1,5-a]pyrimidin-5(4H)-one], the melting point lay in the range of 195 to 197 °C.
On the same count and under the same terms, the figure for `COc1cccc(CSc2nc3nc(Oc4ccccc4)nn3c3ncccc23)c1` [Compound 4, 5-((3-methoxybenzyl)thio)-2-phenoxypyrido[3,2-e][1,2,4]triazolo[1,5-a]pyrimidine] is 149 to 151 °C.
As to `Cc1ccc(Nc2nc3nc(Oc4ccccc4)nn3c3ncccc23)cc1` [Compound 6b, 2-Phenoxy-N-(p-tolyl)pyrido[3,2-e][1,2,4]triazolo[1,5-a]pyrimidin-5-amine], the melting point is 162 to 164 °C. For the same compound, in series [1], the inhibition at 100 µg/mL was more than 50% and the IC50 stood at 207 µM.
For `COc1ccc(O)c(/C=N/Nc2nc3nc(Oc4ccccc4)nn3c3ncccc23)c1` [Compound 6g, (E)-4-Methoxy-2-((2-(2-phenoxypyrido[3,2-e][1,2,4]triazolo[1,5-a]pyrimidin-5-yl)hydrazono)methyl)phenol], the melting point lay within 220 to 222 °C.
Compound `O=c1[nH]c2nc(Oc3ccccc3)nn2c2ncccc12` [Compound 1, 2-phenoxypyrido[3,2-e][1,2,4]triazolo[1,5-a]pyrimidin-5(4H)-one] had a melting point of 252 to 254 °C.
As to `O=c1c2cccnc2n2nc(Oc3ccccc3)nc2n1Cc1ccc(Cl)cc1` [Compound 2i, 4-(4-Chlorobenzyl)-2-phenoxypyrido[3,2-e][1,2,4]triazolo[1,5-a]pyrimidin-5(4H)-one], the melting point is 144 to 146 °C.
Compound `O=c1c2cccnc2n2nc(Oc3ccccc3)nc2n1CCN1CCCCC1` [Compound 2k, 2-Phenoxy-4-(2-(piperidin-1-yl)ethyl)pyrido[3,2-e][1,2,4]triazolo[1,5-a]pyrimidin-5(4H)-one] returned a melting point of 200 to 202 °C.
`Cc1cccc(Cn2c(=O)c3cccnc3n3nc(Oc4ccccc4)nc23)c1` [Compound 2e, 4-(3-Methylbenzyl)-2-phenoxypyrido[3,2-e][1,2,4]triazolo[1,5-a]pyrimidin-5(4H)-one] gave a melting point of 181 to 183 °C.
For `COc1ccc(Nc2nc3nc(Oc4ccccc4)nn3c3ncccc23)cc1` [Compound 6c, N-(4-Methoxyphenyl)-2-phenoxypyrido[3,2-e][1,2,4]triazolo[1,5-a]pyrimidin-5-amine], the melting point was in the range of 174 to 176 °C. For the same compound, in series [1], the inhibition at 100 µg/mL is more than 60% and the IC50 was 177 µM.
With `Clc1nc2nc(Oc3ccccc3)nn2c2ncccc12` [Compound 5, 5-chloro-2-phenoxypyrido[3,2-e][1,2,4]triazolo[1,5-a]pyrimidine], the melting point is 190 to 192 °C.
`NNc1nc2nc(Oc3ccccc3)nn2c2ncccc12` [Compound 6f, 5-hydrazinyl-2-phenoxypyrido[3,2-e][1,2,4]triazolo[1,5-a]pyrimidine] showed a melting point of 241 to 243 °C.
Compound `Cc1ccccc1Cn1c(=O)c2cccnc2n2nc(Oc3ccccc3)nc12` [Compound 2d, 4-(2-Methylbenzyl)-2-phenoxypyrido[3,2-e][1,2,4]triazolo[1,5-a]pyrimidin-5(4H)-one] yielded a melting point of 160 to 162 °C. Besides, in series [1], the inhibition at 100 µg/mL is more than 50% and the IC50 is 174 µM.
Turning to `CCOc1ccc(Nc2nc3nc(Oc4ccccc4)nn3c3ncccc23)cc1` [Compound 6d, N-(4-Ethoxyphenyl)-2-phenoxypyrido[3,2-e][1,2,4]triazolo[1,5-a]pyrimidin-5-amine], the melting point lay within 154 to 156 °C. In series [1], the inhibition at 100 µg/mL is more than 60% and the IC50 amounted to 139 µM.
As for `c1ccc(Nc2nc3nc(Oc4ccccc4)nn3c3ncccc23)cc1` [Compound 6a, 2-Phenoxy-N-phenylpyrido[3,2-e][1,2,4]triazolo[1,5-a]pyrimidin-5-amine], the melting point lay within 251 to 253 °C. In series [1], the inhibition at 100 µg/mL was more than 50% and the IC50 is 154 µM.
As to `C=CCn1c(=O)c2cccnc2n2nc(Oc3ccccc3)nc12` [Compound 2b, 4-Allyl-2-phenoxypyrido[3,2-e][1,2,4]triazolo[1,5-a]pyrimidin-5(4H)-one], the melting point was in the range of 170 to 172 °C.
`O=c1c2cccnc2n2nc(Oc3ccccc3)nc2n1Cc1ccc([N+](=O)[O-])cc1` [Compound 2h, 4-(4-Nitrobenzyl)-2-phenoxypyrido[3,2-e][1,2,4]triazolo[1,5-a]pyrimidin-5(4H)-one] registered a melting point of 150 to 152 °C.
Same read-out and setting: the figure for `ONc1nc2nc(Oc3ccccc3)nn2c2ncccc12` [Compound 6e, N-(2-phenoxypyrido[3,2-e][1,2,4]triazolo[1,5-a]pyrimidin-5-yl)hydroxylamine] is 249 to 251 °C.
For `CCn1c(=O)c2cccnc2n2nc(Oc3ccccc3)nc12` [Compound 2a, 4-Ethyl-2-phenoxypyrido[3,2-e][1,2,4]triazolo[1,5-a]pyrimidin-5(4H)-one], the melting point lay within 173 to 175 °C. In addition, in series [1], the inhibition at 100 µg/mL was more than 50% and half-maximal inhibition (IC50) required 304 µM.
Compound `S=c1[nH]c2nc(Oc3ccccc3)nn2c2ncccc12` [Compound 3, 2-phenoxypyrido[3,2-e][1,2,4]triazolo[1,5-a]pyrimidine-5(4H)-thione] showed a melting point of 270 to 272 °C. Also, in series [1], the inhibition at 100 µg/mL was more than 60% and inhibition was half-maximal at 168 µM (IC50).
Compound `O=C(NNc1nc2nc(Oc3ccccc3)nn2c2ncccc12)c1ccncc1` [Compound 6i, N’-(2-phenoxypyrido[3,2-e][1,2,4]triazolo[1,5-a]pyrimidin-5-yl)isonicotinohydrazide] registered a melting point of 163 to 165 °C.
`COc1cccc(Cn2c(=O)c3cccnc3n3nc(Oc4ccccc4)nc23)c1` [Compound 2f, 4-(3-Methoxybenzyl)-2-phenoxypyrido[3,2-e][1,2,4]triazolo[1,5-a]pyrimidin-5(4H)-one] showed a melting point of 189 to 191 °C.
